Measurements: publication PMC6413153, “Design, Synthesis, and Use of Novel Photoaffinity Probes in Measuring the Serum Concentration of Glycogen Phosphorylase” (Molecules, 2019)

Columns and labels:
[1] = biological target: T1, rabbit muscle glycogen phosphorylase a (RMGPa) (Oryctolagus cuniculus, UniProt P00489); experiment: Enzyme inhibition assay against rabbit muscle glycogen phosphorylase a (phosphate release from glucose-1-phosphate); format: biochemical; settings: mean ± S.D. of three determinations; NI means no inhibition
T1 sequence (P00489 2-843 limits assumed): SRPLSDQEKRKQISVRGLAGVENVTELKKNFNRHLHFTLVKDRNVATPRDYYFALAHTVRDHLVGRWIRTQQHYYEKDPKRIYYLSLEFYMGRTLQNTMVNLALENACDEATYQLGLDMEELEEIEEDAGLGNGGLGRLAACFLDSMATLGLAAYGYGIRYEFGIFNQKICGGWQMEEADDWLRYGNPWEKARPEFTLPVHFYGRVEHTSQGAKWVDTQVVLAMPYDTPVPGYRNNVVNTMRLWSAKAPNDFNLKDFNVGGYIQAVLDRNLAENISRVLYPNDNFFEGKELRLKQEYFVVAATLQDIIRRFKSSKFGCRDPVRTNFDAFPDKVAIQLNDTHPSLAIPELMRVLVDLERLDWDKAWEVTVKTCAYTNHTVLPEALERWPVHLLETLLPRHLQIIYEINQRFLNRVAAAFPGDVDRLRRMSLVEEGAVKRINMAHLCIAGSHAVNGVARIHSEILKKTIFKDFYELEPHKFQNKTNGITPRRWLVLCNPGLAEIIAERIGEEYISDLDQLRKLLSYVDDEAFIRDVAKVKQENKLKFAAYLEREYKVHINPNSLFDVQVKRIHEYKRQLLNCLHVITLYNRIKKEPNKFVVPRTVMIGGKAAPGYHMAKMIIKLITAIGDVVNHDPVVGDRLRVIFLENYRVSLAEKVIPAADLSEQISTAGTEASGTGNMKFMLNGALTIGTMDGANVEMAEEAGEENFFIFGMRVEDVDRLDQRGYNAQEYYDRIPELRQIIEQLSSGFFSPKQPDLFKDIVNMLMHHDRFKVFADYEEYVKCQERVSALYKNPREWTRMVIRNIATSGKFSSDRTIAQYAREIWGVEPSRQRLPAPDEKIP
Procedure: To understand the validity of the synthetic probes, the synthesized probes 1–3 were evaluated in an enzyme inhibition assay against rabbit muscle glycogen phosphorylase a (RMGPa). As described previously, the activity of RMGPa was measured through detecting the release of phosphate from glucose-1-phosphate in the direction of glycogen synthesis, based on the published method.
The inhibitory activity of the test compounds against RMGPa was monitored using a microplate reader (BIO-RAD, Bio-Rad Laboratories, Hercules, CA, USA), based on the published method. In brief, RMGPa activity was measured in the direction of glycogen synthesis by the release of phosphate from glucose-1-phosphate. Each test compound was dissolved in DMSO and diluted at different concentrations for IC50 determination. The enzyme was added to 100 μL of buffer containing 50 mM Hepes (pH = 7.2), 100 mM KCl, 2.5 mM MgCl2, 0.5 mM glucose-1-phosphate, 1 mg/mL glycogen, and the test compound in 96-well microplates (Costar, Corning Incorporated, Corning, NY, USA). After the addition of 150 μL of 1 M HCl containing 10 mg/mL ammonium molybdate and 0.38 mg/mL malachite green, reactions were run at 22 °C for 25 min, and then the phosphate absorbance was measured at 655 nm. The IC50 values were estimated by fitting the inhibition data to a dose-dependent curve using a logistic derivative equation.

[2] = tested on: serum proteomes prepared from rats with acute myocardial infarction; experiment: Photoaffinity labeling of serum proteomes, gel-based fluorescence imaging; format: binding, rat; settings: UV light 30 min
Procedure: Based on the results of the potency in the enzyme assay, probe 1 was selected and used throughout photolabeling studies (Figure 3). The serum proteomes prepared from rats with acute myocardial infarction were incubated with probe 1 at concentrations of […], and 300, 100, and 30 nM, respectively. The mixture was exposed to UV light for 30 min, and then was imaged using the Tanon-6100 Chemiluminescent Imaging system.
An attempt to semi-quantitatively analyze the serum-free GP level after an acute myocardial infarction was explored. Serum blanks were added in increasing quantities of RMGPa (0, 12.5, 25, 50, and 100 ng/mL at a final concentration) in the presence of an excess of probe 1 (10 μM). In the same way, probe 1 was added to the serum in an acute myocardial infarction model in a rat. […]
Blood samples prepared from rats with acute myocardial infarction were drawn from the abdominal aorta in rats after coronary ligation using a 23-gauge needle. […] The protein concentration of the suspension was measured according to the Bradford method. […] The band densities were calculated with Quantity One software 4.6.2 (Bio-Rad Laboratories, Inc., Hercules, CA, USA). […] The data were recorded on an LTQ-Orbitrap Fusion mass spectrometer (ThermoFisher Scientific Inc., Waltham, MA, USA) coupled to an Easy-nLC 1000 LC System (Thermo Fischer Scientic). […]

IC50 [1] [µM]	melting point [°C]	RMGPa IC50 [1]	Compound	Labelling of protein bands with MW of about 90–100 kDa in semi-quantitative analysis ([2]; 10 μM probe, rat AMI serum and serum blanks with added RMGPa 0–100 ng/mL)	Labelling of protein band with MW of about 90–100 kDa (consistent with MW of GP) ([2]; probe at 10, 3, and 1 mM, and 300, 100, and 30 nM, 2.0 mg/mL proteomes)
13.2 ± 5.87	151 to 153	–	CN(C)c1cccc2c(S(=O)(=O)NCCCC[C@H](NC(=O)c3ccc(C(=O)c4ccccc4)cc3)C(=O)OCc3cn(CCOCCOCCOCCOC4CCN(C(=O)[C@H](Cc5ccc(F)cc5)NC(=O)c5cc6cc(Cl)ccc6[nH]5)CC4)nn3)cccc12 [Compound 1, N-[(S)-1-(4-{2-[2-(2-{2-[4-({[(S)-2-(4-Benzoylbenzamido)-6-(dansylamide)hexanoyl]oxy}methyl)-1H-1,2,3-triazol-1-yl]ethoxy}ethoxy)ethoxy]ethoxy}piperidin-1-yl)-3-(4-fluorophenyl)-1-oxopropan-2-yl]-5-chloro-1H-indole-2-carboxamide]	efficiently labeled	clearly labelled
–	159 to 161	no inhibitory activity	CN(C)c1cccc2c(S(=O)(=O)NCCCCC(NC(=O)c3ccc(C(=O)c4ccccc4)cc3)C(=O)N[C@@H](CCCCNC(=O)CCCC[C@@H]3SC[C@H]4NC(=O)N[C@@H]34)C(=O)OCc3cn(CCOCCOCCOCCOC4CCN(C(=O)[C@H](Cc5ccc(F)cc5)NC(=O)c5cc6cc(Cl)ccc6[nH]5)CC4)nn3)cccc12 (stereo partly drawn) [Compound 2, N-[(S)-1-(4-{2-[2-(2-{2-[4-({[(S)-2-[(S)-2-(4-Benzoylbenzamido)-6-(dansylamide)hexanamido]-6-(5-{(3aR,4S,6aS)-2-oxohexahydro-1H-thieno[3,4-d]imidazol-1-yl}pentanamido)hexanoyl]oxy}methyl)-1H-1,2,3-triazol-1-yl]ethoxy}ethoxy)ethoxy]ethoxy}piperidin-1-yl)-3-(4-fluorophenyl)-1-oxopropan-2-yl]-5-chloro-1H-indole-2-carboxamide]	–	–
–	113 to 115	–	[N-]=[N+]=NCC(=O)NCCCC[C@H](NC(=O)c1ccc(C(=O)c2ccccc2)cc1)C(=O)OCc1cn(CCOCCOCCOCCOC2CCN(C(=O)[C@H](Cc3ccc(F)cc3)NC(=O)c3cc4cc(Cl)ccc4[nH]3)CC2)nn1 [Compound 3, N-[(S)-1-(4-{2-[2-(2-{2-[4-({[(S)-2-(4-Benzoylbenzamido)-6-(2-azidoacetamido)hexanoyl]oxy}methyl)-1H-1,2,3-triazol-1-yl]ethoxy}ethoxy)ethoxy]ethoxy}piperidin-1-yl)-3-(4-fluorophenyl)-1-oxopropan-2-yl]-5-chloro-1H-indole-2-carboxamide]	–	–
0.43 ± 0.16	103 to 105	–	O=C(N[C@@H](Cc1ccc(F)cc1)C(=O)N1CCC(OCCOCCOCCOCCO)CC1)c1cc2cc(Cl)ccc2[nH]1 [Compound 11, N-{(S)-1-[4-(2-{2-[2-(2-Hydroxyethoxy)ethoxy]ethoxy}ethoxy)piperidin-1-yl]-3-(4-fluorophenyl)-1-oxopropan-2-yl}-5-chloro-1H-indole-2-carboxamide]	–	–
